Molecular target: 11-beta-hydroxysteroid dehydrogenase 1 (Homo sapiens) (UniProt P28845)
Assay: ligand binding to human 11beta-HSD1 – biophysical, DSF, SYPRO orange, purified protein (AID 398)
Settings: DSF thermal shift, protein 3 µM, buffer 10 mM HEPES, pH 7.5, NaCl 150 mM, stronger effect = higher value

11-beta-hydroxysteroid dehydrogenase 1 (Homo sapiens), sequence (P28845 whole entry, looked up): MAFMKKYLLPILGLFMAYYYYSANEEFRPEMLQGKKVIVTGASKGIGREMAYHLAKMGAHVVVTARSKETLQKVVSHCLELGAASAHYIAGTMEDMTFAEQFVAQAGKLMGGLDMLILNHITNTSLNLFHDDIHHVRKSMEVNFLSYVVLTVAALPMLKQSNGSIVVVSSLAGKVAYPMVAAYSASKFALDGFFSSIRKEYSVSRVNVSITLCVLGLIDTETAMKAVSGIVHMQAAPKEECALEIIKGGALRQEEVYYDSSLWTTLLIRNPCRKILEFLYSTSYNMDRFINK

SMILES | Tm shift (at 40 µM) | Tm shift (measured here: second DSF experiment, at 40 µM, run 2, at 40 µM) | Tm shift (at 10 µM, NADP 100 µM)
NC(=O)c1ccc[n+](C2OC(COP(=O)(O)OP(=O)(O)OCC3OC(n4cnc5c(N)ncnc54)C(OP(=O)(O)O)C3O)C(O)C2O)c1 (stereo unspecified) | 5.7 Celsius | 2.6 Celsius | –
COC(=O)[C@H](C)CO | – | – | 6.7 Celsius

Other lines, results leading:

Tm shift (at 40 µM) | Tm shift (measured here: second DSF experiment, at 40 µM, run 2, at 40 µM) | Tm shift (at 10 µM, NADP 100 µM) | SMILES
– | – | 2.7 Celsius | CC(C)(COP(=O)(O)OP(=O)(O)OCC1OC(n2cnc3c(N)ncnc32)C(O)C1OP(=O)(O)O)C(O)C(=O)NCCC(=O)NCCSC(=O)CCC(=O)O (stereo unspecified)
– | – | 3.6 Celsius | CC(C)(COP(=O)(O)OP(=O)(O)OCC1OC(n2cnc3c(N)ncnc32)C(O)C1OP(=O)(O)O)C(O)C(=O)NCCC(=O)NCCSC(=O)Cc1ccccc1 (stereo unspecified)
– | – | 3.9 Celsius | C=CC1=C(C)/C(=C/c2[nH]c(Cc3[nH]c(/C=C4\NC(=O)C(C)=C4C=C)c(C)c3CCC(=O)O)c(CCC(=O)O)c2C)NC1=O
